One assay deals with T1, PCAF (Homo sapiens, UniProt Q92831).
T1 construct: purchased Cayman 10006515
Kind of assay: PCAF inhibitor screening assay kit (fluorescence). It is filed as biochemical. To be noted: mean ± SD. The method, then: Curcuminoids were tested for direct HDAC1 and PCAF inhibitory activity using the fluorescent-based HDAC1 or PCAF inhibitor screening assay kit ((HDAC1) 10011564, (PCAF) 10006515, Cayman, Ann Arbor, MI, USA) according to manufacturer’s instructions.
(§1) Data for the PCAF and HDAC1 inhibition and viability assays were used to derive percent changes based on no treatment controls. Each of three data sets were then fit to a 4-parameter logistic regression using SigmaPlot 12.2 to derive IC50 values, which were then used to determine the mean and SD.

The subject of another assay is Sup-T1 cells. Nature of the assay: Cellular growth inhibition assay (MTS). It is filed as cell-based. To be noted: Homo sapiens, SUP-T1, read-out: Viability IC50. The method, then:
The CellTiter 96® AQueous One Solution Cell Proliferation Assay (MTS, Promega, Madison, WI, USA) was used to measure proliferation inhibition of cultured cells. Briefly, Sup-T1 cells were cultured in RPMI 1640 supplemented with 10% FBS and 1% penicillin/streptomycin at 37 °C and 5% CO2. […] The MTS reagent was added and incubated for 4 h. […] Sup-T1 cells were used in this study because curcuminoids are thought in part to work via an HDAC inhibitor mechanism and as some HDACs are approved for some T-cell lymphomas, we used Sup-T1 cells because they are a T-cell lymphoma cell line that is established. To the best of our knowledge no other study has measured the effects of THC on Sup-T1 cells.
as §1

The subject of assay [1] is TNF-α release in Sup-T1 cells. Kind of assay: Cellular inflammatory cytokine release assay (TNF-α ELISA). It counts as cell-based, human. To be noted: Sup-T1 cells, 5, 10, 50 and 100 μM, versus no-treatment control. The method, then:
Cell culture supernatant was collected and used to determine released TNF-α using the Human TNF-alpha DuoSet ELISA kit (DY210, R & D systems, Minneapolis, MN, USA) following the standard manufacturer’s protocol, optimized using recombinant TNF-α. […] The data were analyzed using SigmaPlot 12.2 (Systat Software Inc., San Jose, CA, USA).

The target in the next assay is T2, COX-1 (Ovis aries, UniProt P05979).
T2 construct: purchased Cayman Chemical 560131
T2 sequence (P05979 25-600): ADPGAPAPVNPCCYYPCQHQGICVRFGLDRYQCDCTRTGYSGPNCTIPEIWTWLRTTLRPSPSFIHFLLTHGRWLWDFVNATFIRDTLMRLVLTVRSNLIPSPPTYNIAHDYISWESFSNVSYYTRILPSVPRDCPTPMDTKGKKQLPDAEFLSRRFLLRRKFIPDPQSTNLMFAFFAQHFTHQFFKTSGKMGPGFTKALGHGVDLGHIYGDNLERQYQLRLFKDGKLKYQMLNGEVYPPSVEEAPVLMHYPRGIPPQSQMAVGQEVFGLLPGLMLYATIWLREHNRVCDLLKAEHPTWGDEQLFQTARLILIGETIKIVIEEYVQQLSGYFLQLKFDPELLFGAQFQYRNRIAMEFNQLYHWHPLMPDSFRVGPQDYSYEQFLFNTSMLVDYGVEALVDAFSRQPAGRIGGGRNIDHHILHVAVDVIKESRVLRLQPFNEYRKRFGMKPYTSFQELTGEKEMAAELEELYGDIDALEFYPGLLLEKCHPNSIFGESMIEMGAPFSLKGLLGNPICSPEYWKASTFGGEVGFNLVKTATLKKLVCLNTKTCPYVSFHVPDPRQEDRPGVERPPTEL
Kind of assay: COX inhibitor screening assay kit, COX-1. It is filed as biochemical. To be noted: mean ± SD. The procedure:
The assay was performed in quadruplet using a COX Inhibitor Screening Assay Kit from Cayman Chemical (Cat. No. 560131) according to the manufacturer’s instructions.

Assay [2] deals with T3, 15-lipoxygenase derived from soybean (Glycine max, UniProt P08170).
T3 sequence (P08170 1-839): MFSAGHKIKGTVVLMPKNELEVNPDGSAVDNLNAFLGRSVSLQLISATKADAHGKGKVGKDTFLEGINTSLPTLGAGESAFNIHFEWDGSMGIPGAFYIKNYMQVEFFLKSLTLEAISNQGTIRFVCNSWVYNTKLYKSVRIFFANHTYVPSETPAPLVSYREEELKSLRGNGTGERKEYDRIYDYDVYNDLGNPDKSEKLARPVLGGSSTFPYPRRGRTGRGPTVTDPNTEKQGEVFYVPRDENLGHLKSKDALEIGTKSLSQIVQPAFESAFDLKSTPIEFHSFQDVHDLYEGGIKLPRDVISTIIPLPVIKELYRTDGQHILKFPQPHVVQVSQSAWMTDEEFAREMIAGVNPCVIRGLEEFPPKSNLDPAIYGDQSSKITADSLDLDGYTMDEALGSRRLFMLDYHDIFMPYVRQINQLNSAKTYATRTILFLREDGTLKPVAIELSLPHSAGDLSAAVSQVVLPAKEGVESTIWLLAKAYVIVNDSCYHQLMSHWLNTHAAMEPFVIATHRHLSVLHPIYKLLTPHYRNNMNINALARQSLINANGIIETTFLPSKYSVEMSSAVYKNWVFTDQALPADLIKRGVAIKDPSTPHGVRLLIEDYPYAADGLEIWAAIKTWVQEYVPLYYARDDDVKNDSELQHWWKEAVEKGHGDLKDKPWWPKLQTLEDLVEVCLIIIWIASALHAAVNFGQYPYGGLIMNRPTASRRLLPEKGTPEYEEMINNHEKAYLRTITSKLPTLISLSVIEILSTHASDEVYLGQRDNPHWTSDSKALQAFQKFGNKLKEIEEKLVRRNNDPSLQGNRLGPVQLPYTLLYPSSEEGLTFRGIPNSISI
Kind of assay: Lipoxygenase inhibitor screening assay kit.

The record followed here is PMC5750651, “Disposition, Metabolism and Histone Deacetylase and Acetyltransferase Inhibition Activity of Tetrahydrocurcumin and Other Curcuminoids” (Pharmaceutics, 2017).

T1 sequence (Q92831 492-658 limits assumed): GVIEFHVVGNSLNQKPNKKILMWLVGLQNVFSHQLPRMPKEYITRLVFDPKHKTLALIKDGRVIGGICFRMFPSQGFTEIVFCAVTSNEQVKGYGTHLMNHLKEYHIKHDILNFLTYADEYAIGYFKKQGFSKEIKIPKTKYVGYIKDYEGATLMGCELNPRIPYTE

Consider `COc1cc(/C=C/C(=O)CC(=O)/C=C/c2ccc(O)c(OC)c2)ccc1O` [Curcumin, curcumin], for which the IC50 stood at 33.1 ± 2.8 µM at PCAF, 19 ± 11 µM in the assay on Sup-T1 cells and 3390 ± 8980 µM on COX-1. The “change in TNF-α concentration (in words)” value in assay [1] was “slight decrease”. Further, the “lipoxygenase inhibition (in words)” value in assay [2] (1, 10 and 250 μg/mL tested, versus control) is reported as “inhibited soybean 1,5-lipoxygenase at all doses tested”. Moreover, the “lowest concentration inhibiting lipoxygenase” value in assay [2] (soybean 15-lipoxygenase, linoleic acid substrate) is not above 1 µM.
